Measured values taken from patent US12226385B2, “Synergistic composition for activating intracellular secondary messenger(cAMP) pathway” (CELAGENEX RESEARCH (INDIA) PRIVATE LTD., priority 2021, dated 2025).

Assays:
experimental rat [1] = experiment: Novel Object Test in rats; format: in vivo; conditions: male Wister rats, n=6, end of treatment, doses per Table 3
Protocol: (§1) Evaluation of physical parameters of the test substances in experimental rat.
(§2) • Species: Rat • Strain: Wister • Sex: Male • No. of animals: 48 Animals (n=6 per group) • Body weight: 180-200 gm Group, Designation and Dose Levels:
(§3) The tests were performed by the known technique.
(§4) The following behavioural test were conducted at the end of the treatment, • Force Swim Test • Open Field Test • Behavioural at Novel Object Test • Behaviour at Elevated Plus Maze (EPM) test
Table 5 represent behavioural at novel object test where latency time spent towards the novel objects indicated better memory and learning ability. This test is based on the spontaneous tendency of rats to spend more time exploring a novel object than a familiar one.

[2] = test system: CREB (Cyclic AMP Response Element-Binding Protein); experiment: Estimation of CREB (Cyclic AMP Response Element-Binding Protein); format: cell-based, Rat; conditions: doses per Table 1
Protocol: g. Estimation of CREB (Cyclic AMP Response Element-Binding Protein) nM Results:
(§5) The estimation of modulatory effect of test substance on biochemical parameters were analysed in C6 (Rat Glioblastoma) cell. […] This indicated the increase in synapse number and neuroplasticity.

ALCAR = experiment: Estimation of ALCAR plasma level (ALCAR ELISA kit); format: cell-based, Rat; conditions: doses per Table 1
Protocol: f. Estimation of ALCAR Plasma Level (Nmol/Ml): Assay Performed by ALCAR ELISA Kit
as §5

cAMP = experiment: Modulatory effect on cAMP levels in C6 cells (ELISA kit); format: cell-based; conditions: C6 (Rat Glioblastoma) cells, 28 hours of incubation, doses per Table 1
Protocol: To assess the effectiveness of test substance on modulation of cAMP and evaluation of BDNF in Rat Glioblastoma cells.
The cytotoxicity profiling of the test substance was carried out to find the safe dose on C6 cells. […] The levels of cAMP in the cell lysate were measured using a suitable ELISA kit to infer the modulatory effect.
10 mg of test substance was separately dissolved in 100 μL of DMSO and volume was made up with Ham's F-12 medium supplemented with 2% inactivated FBS to obtain a stock solution of 10 mg/mL concentration and sterilized by 0.22μ syringe filtration. Serial two-fold dilutions were prepared from this stock solution for further studies.
C6 (Rat Glioblastoma) cell line was procured from NCCS, India. Stock cells was cultured in Ham's F-12 medium supplemented with 10% inactivated Fetal Bovine Serum (FBS), penicillin (100 IU/ml), streptomycin (100 μg/ml) and amphotericin B (5 μg/ml) in a humidified atmosphere of 5% CO2 at 37° C. until confluent. Passaging was done by centrifuging the cells, followed by seeding the pellet into a tissue culture vessel. The stock cultures were grown in 25 cm2 culture flasks and all experiments will be carried out in 96 microtitre plates (Tarsons India Pvt. Ltd., Kolkata, India).
To perform the assay, cells were seeded in 24-well plates containing […] complete Ham's F-12 with 4.5 g/L glucose. […] Then, the selected dose of test substances and positive control (Clozapine) was added to the cells. After 28 hours of incubation, the cell supernatants from respective treatment wells were collected and assayed to estimate the levels of cyclic AMP using a commercially available kit.

experimental rat [3] = experiment: Force Swim Test in rats; format: in vivo; conditions: male Wister rats, n=6, end of treatment, doses per Table 3
Protocol: as §1, §2, §3, §4

BDNF = experiment: Estimation of BDNF levels in C6 cells (Rat BDNF ELISA kit); format: cell-based; conditions: C6 (Rat Glioblastoma) cells, 28 hours of incubation, doses per Table 1
Protocol: To perform the assay, cells were seeded in 24-well plates containing 500 μL complete Ham's F-12 with 4.5 g/L glucose. After 24 h, the confluent monolayer of cells was firstly incubated with the corresponding inhibitor compound for 1-4 h (based on standardization) minutes in the incubator at 37° C. and 5% CO2. Then, the selected dose of test substances and positive control was added to the cells. After 28 hours of incubation, the cell supernatants from respective treatment wells were collected and assayed to estimate the levels of BDNF using a commercially available Rat BDNF ELISA kit.

experimental rat [4] = experiment: Elevated Plus Maze (EPM) test in rats; format: in vivo; conditions: male Wister rats, n=6, end of treatment, doses per Table 3
Protocol: as §1, §2, §3, §4

experimental rat [5] = experiment: Open Field Test in rats; format: in vivo; conditions: male Wister rats, n=6, end of treatment, doses per Table 3
Protocol: as §1, §2, §3, §4

SMILES: CC(=O)O[C@H](CC(=O)[O-])C[N+](C)(C)C [Group 4, (3R)-3-acetyloxy-4-(trimethylazaniumyl)butanoate]
- Latency to reach Novel Object (experimental rat [1]): 35 s
- Number of times sniffing the object (experimental rat [1]): 49 times
- Time Spent sniffing the object (experimental rat [1]): 08%
- CREB [2]: 1.0 nM
- Plasma ALCAR (ALCAR): 25 nmol/mL
- cAMP (cAMP): 4.8 pmol/µL
- Force Swim Test Immobility (experimental rat [3]): 55 s
- BDNF (BDNF): 88 ng/L
- Number of entries in to open arm (experimental rat [4]): 08 times
- Number of times head dipping (experimental rat [4]): 12 times
- Number of times rearing (experimental rat [4]): 18 times
- Time Spent Rearing (experimental rat [4]): 15%
- Time in the open arms (experimental rat [4]): 12%
- time spent head dipping (experimental rat [4]): 11%
- Open Field Test Distance walked in corners (experimental rat [5]): 1860 cm
- Open Field Test Latency to reach center (experimental rat [5]): 27 s

SMILES: CN1CCN(C2=Nc3cc(Cl)ccc3Nc3ccccc32)CC1 [Clozapine]
- Latency to reach Novel Object (experimental rat [1]): 03 s
- Number of times sniffing the object (experimental rat [1]): 62 times
- Time Spent sniffing the object (experimental rat [1]): 13%
- CREB [2]: 0.5 nM
- Plasma ALCAR (ALCAR): 21 nmol/mL
- cAMP (cAMP): 4.1 pmol/µL
- Force Swim Test Immobility (experimental rat [3]): 189 s
- BDNF (BDNF): 77 ng/L
- Number of entries in to open arm (experimental rat [4]): 10 times
- Number of times head dipping (experimental rat [4]): 18 times
- Number of times rearing (experimental rat [4]): 25 times
- Time Spent Rearing (experimental rat [4]): 19%
- Time in the open arms (experimental rat [4]): 15%
- time spent head dipping (experimental rat [4]): 21%
- Open Field Test Distance walked in corners (experimental rat [5]): 2200 cm
- Open Field Test Latency to reach center (experimental rat [5]): 38 s
